Square brackets hold non-standard residues; d marks the D form. Peptide text beside a SMILES is read from it.
Tests used:
HEK293T = assay: cells; assay type: cell-based, human; conditions: 72 h
MCF‐10A = assay: cells; assay type: cell-based, human; conditions: for selectivity for cancerous cells over non‐tumorigenic MCF‐10A: 2D culture, ratio of IC50; for IC50: 72 h
Description: (§1) […], and MCF-10A cells were maintained in MEGM with supplements and growth factors bovine pituitary extract, hydrocortisone, human epidermal growth factor, insulin, and gentamicin/amphotericin-B.

HMLER‐shEcad = assay: cells; assay type: cell-based, human; conditions: 72 h
Description: as §1

U2OS = assay type: cell-based, human; conditions: 72 h
[1] = Tryptophan fluorescent binding assay; conditions: tryptophan fluorescence; 50 µM peptide, lipid titrated 0-5000 µM; phosphate buffered saline 1X, pH 7.4; values as lipid per peptide
Experimental: 50 µM ACP peptides and varied concentrations (concentrations: 0, 25, 50, 100, 150, 200, 250, 500, 1250, and 2500 µM) of POPC or POPC:POPG (3:1 ratio) large unilamellar vesicles were prepared in 10 mM phosphate buffer (pH 7.0). The solutions were measured after 1 h of incubation. Excitation was fixed at 280 nm (slit 9 nm) and emission was collected from 300 to 450 nm (slit 9 nm). The spectra were recorded using Cytation 5 Cell Imaging Multi‐Mode Reader from BioTek and were averaged by three scans.
Lipid Concentration-induced
Name Sequence† 50% Peptide Binding (L/P)
Extended Data Table 3 | Tryptophan binding assay. […]
peptide binding onto liposome. 50 µM peptides were fixed and incubated with titrated lipid (POPC vesicle […]
phosphate buffered saline (1X, pH 7.4). The lipid concentration that causes 50 % peptide binding was determined using tryptophan fluorescent binding assay and the values are shown as lipid per peptide.

[2] = ANTS/DPX liposome leakage assay; conditions: for Peptide Concentration-induced 50 % ANTS/DPX leakage at pH 4.8 (L/P), 3POPC/1POPG Vesicle / Peptide Concentration-induced 50 % ANTS/DPX leakage at pH 4.8 (L/P), POPC Vesicle / Peptide Concentration-induced 50 % ANTS/DPX leakage at pH 7.4 (L/P), 3POPC/1POPG Vesicle / Peptide Concentration-induced 50 % ANTS/DPX leakage at pH 7.4 (L/P), POPC Vesicle: 0.5 mM vesicles, peptide 0-20 µM, 3 h incubation, lipid per peptide; for Peptide Concentration-induced 50 % ANTS/DPX leakage at pH 4.8 (L/P), 3POPC/1POPG Vesicle / Peptide Concentration-induced 50 % ANTS/DPX leakage at pH 4.8 (L/P), POPC Vesicle: HCl-adjusted PBS 1X pH 4.8; for Peptide Concentration-induced 50 % ANTS/DPX leakage at pH 7.4 (L/P), 3POPC/1POPG Vesicle / Peptide Concentration-induced 50 % ANTS/DPX leakage at pH 7.4 (L/P), POPC Vesicle: PBS 1X pH 7.4, high ratio = more potent; for change of ANTS/DPX dye leakage / liposome selectivity at pH 4.8: pH = 4.8 compared with physiological pH, anionic versus neutral liposomes
Experimental: Vesicle preparation: 5 mM ANTS and 12.5 mM DPX were entrapped in 0.1 µm diameter extruded vesicles (either POPC or POPC/POPG at a ratio of 3:1) with lipids. Gel filtration chromatography of Sephadex G‐100 was used to remove external free ANTS/DPX from LUVs with entrapped contents. LUVs were diluted to 0.5 mM and used to measure the leakage activity by the addition of aliquots of ACPs. Leakage was measured after 3 h incubation. 10% Triton was used as the positive control to measure the maximum leakage of the vesicle. Fluorescence emission spectra were recorded using excitation and emission wavelength of 350 and 510 nm for ANTS/DPX using a BioTek Synergy H1 Hybrid Multi‐Mode Reader.
Peptide Concentration-induced Peptide Concentration-induced
Name Sequence† 50 % ANTS/DPX leakage 50 % ANTS/DPX leakage at pH 7.4 (L/P) at pH 4.8 (L/P)
POPC Vesicle 3POPC/1POPG Vesicle POPC Vesicle 3POPC/1POPG Vesicle […]
Extended Data Table 4 | Peptide concentration-induced 50 % ANTS/DPX liposome leakage. 0.5 mM POPC and 3POPC/1POPG vesicles were fixed and incubated with titrated peptide concentration (0, 0.02, […]
hydrochloric acid-adjusted phoshate buffered saline (1X, pH 4.8). The values are shown as lipid per

HMLER = assay: cells; assay type: cell-based, human; conditions: 72 h
Description: as §1

Row | Structure (SMILES) | IC50 (HEK293T) | selectivity for cancerous cells over non‐tumorigenic MCF‐10A (MCF‐10A) | IC50 (HMLER‐shEcad) | IC50 (U2OS) | Lipid Concentration-induced 50% Peptide Binding (L/P), 3POPC/1POPG Vesicle [1] | Lipid Concentration-induced 50% Peptide Binding (L/P), POPC Vesicle [1] | Peptide Concentration-induced 50 % ANTS/DPX leakage at pH 4.8 (L/P), 3POPC/1POPG Vesicle [2] | Peptide Concentration-induced 50 % ANTS/DPX leakage at pH 4.8 (L/P), POPC Vesicle [2] | Peptide Concentration-induced 50 % ANTS/DPX leakage at pH 7.4 (L/P), 3POPC/1POPG Vesicle [2] | Peptide Concentration-induced 50 % ANTS/DPX leakage at pH 7.4 (L/P), POPC Vesicle [2] | change of ANTS/DPX dye leakage / liposome selectivity at pH 4.8 [2] | IC50 (MCF‐10A) | IC50 (HMLER)
1 | CC(C)C[C@H](NC(=O)CN)C(=O)N[C@@H](CC(C)C)C(=O)N[C@@H](CCC(=O)O)C(=O)N[C@@H](CC(C)C)C(=O)N[C@@H](CC(C)C)C(=O)N[C@@H](CCC(=O)O)C(=O)N[C@@H](CC(C)C)C(=O)N[C@@H](CC(C)C)C(=O)N[C@@H](CC(C)C)C(=O)N[C@@H](CCC(=O)O)C(=O)N[C@@H](C)C(=O)N[C@@H](C)C(=O)NCC(=O)N[C@@H](Cc1c[nH]c2ccccc12)C(N)=O [EEE] (H-GLLELLELLLEAAGW-NH2) | 50 µM | > 25 fold | 10.6 ± 3.46 µM | 78.8 ± 5.3 µM | 4.50 L/P | 1.33 L/P | 28 L/P | 35 L/P | 346 L/P | 143 L/P | no increase in selectivity at low pH | – | –
2 | CC(C)C[C@H](NC(=O)CN)C(=O)N[C@@H](CC(C)C)C(=O)N[C@@H](CC(=O)O)C(=O)N[C@@H](CC(C)C)C(=O)N[C@@H](CC(C)C)C(=O)N[C@@H](CCC(=O)O)C(=O)N[C@@H](CC(C)C)C(=O)N[C@@H](CC(C)C)C(=O)N[C@@H](CC(C)C)C(=O)N[C@@H](Cc1c[nH]cn1)C(=O)N[C@@H](C)C(=O)N[C@@H](C)C(=O)NCC(=O)N[C@@H](Cc1c[nH]c2ccccc12)C(N)=O [DEH] (H-GLLDLLELLLHAAGW-NH2) | 10.5 ± 4.67 µM | – | 3.6 ± 0.42 µM | 36.5 ± 3.92 µM | 1.50 L/P | 0.75 L/P | 193 L/P | 63 L/P | 548 L/P | 620 L/P | – | 20.2 ± 6.72 µM | 5.35 ± 1.91 µM
3 | CC(C)C[C@H](NC(=O)CN)C(=O)N[C@@H](CC(C)C)C(=O)N[C@@H](CC(=O)O)C(=O)N[C@@H](CC(C)C)C(=O)N[C@@H](CC(C)C)C(=O)N[C@@H](CCCCN)C(=O)N[C@@H](CC(C)C)C(=O)N[C@@H](CC(C)C)C(=O)N[C@@H](CC(C)C)C(=O)N[C@@H](CCC(=O)O)C(=O)N[C@@H](C)C(=O)N[C@@H](C)C(=O)NCC(=O)N[C@@H](Cc1c[nH]c2ccccc12)C(N)=O [DKE] (H-GLLDLLKLLLEAAGW-NH2) | 7.8 ± 1.41 µM | – | 1.57 ± 0.33 µM | 9.93 ± 0.25 µM | 0.46 L/P | 0.56 L/P | 469 L/P | 21 L/P | 411 L/P | 747 L/P | – | 4.75 ± 0.49 µM | 2.1 µM
4 | CC(C)C[C@H](NC(=O)CN)C(=O)N[C@@H](CC(C)C)C(=O)N[C@@H](CCCCN)C(=O)N[C@@H](CC(C)C)C(=O)N[C@@H](CC(C)C)C(=O)N[C@@H](CCC(=O)O)C(=O)N[C@@H](CC(C)C)C(=O)N[C@@H](CC(C)C)C(=O)N[C@@H](CC(C)C)C(=O)N[C@@H](CCC(=O)O)C(=O)N[C@@H](C)C(=O)N[C@@H](C)C(=O)NCC(=O)N[C@@H](Cc1c[nH]c2ccccc12)C(N)=O [KEE] (H-GLLKLLELLLEAAGW-NH2) | 11.1 ± 1.84 µM | > 25 fold | 2.05 ± 0.21 µM | 49.4 ± 13.3 µM | 0.20 L/P | 0.20 L/P | 108 L/P | 97 L/P | 657 L/P | 626 L/P | no increase in selectivity at low pH | – | –
5 | CC(C)C[C@@H](NC(=O)CN)C(=O)N[C@H](CC(C)C)C(=O)N[C@H](CC(=O)O)C(=O)N[C@H](CC(C)C)C(=O)N[C@H](CC(C)C)C(=O)N[C@H](CCC(=O)O)C(=O)N[C@H](CC(C)C)C(=O)N[C@H](CC(C)C)C(=O)N[C@H](CC(C)C)C(=O)N[C@H](CCCCN)C(=O)N[C@H](C)C(=O)N[C@H](C)C(=O)NCC(=O)N[C@H](Cc1c[nH]c2ccccc12)C(N)=O [d-DEK] (H-G[dL][dL][dD][dL][dL][dE][dL][dL][dL][dK][dA][dA]G[dW]-NH2) | 3.28 ± 0.21 µM | – | 0.36 µM | 5.84 ± 0.04 µM | – | – | – | – | – | – | – | 0.57 ± 0.01 µM | 0.44 ± 0.1 µM
6 | CC(C)C[C@H](NC(=O)CN)C(=O)N[C@@H](CC(C)C)C(=O)N[C@@H](CCC(=O)O)C(=O)N[C@@H](CC(C)C)C(=O)N[C@@H](CC(C)C)C(=O)N[C@@H](CCC(=O)O)C(=O)N[C@@H](CC(C)C)C(=O)N[C@@H](CC(C)C)C(=O)N[C@@H](CC(C)C)C(=O)N[C@@H](Cc1c[nH]cn1)C(=O)N[C@@H](C)C(=O)N[C@@H](C)C(=O)NCC(=O)N[C@@H](Cc1c[nH]c2ccccc12)C(N)=O [EEH] (H-GLLELLELLLHAAGW-NH2) | 12.9 ± 0.14 µM | > 25 fold | 3.6 ± 0.85 µM | 19.6 ± 3.96 µM | 0.50 L/P | 0.50 L/P | 168 L/P | 58 L/P | 755 L/P | 738 L/P | significantly increased dye leakage from anionic liposomes | – | –
7 | CC(C)C[C@H](NC(=O)CN)C(=O)N[C@@H](CC(C)C)C(=O)N[C@@H](CCC(=O)O)C(=O)N[C@@H](CC(C)C)C(=O)N[C@@H](CC(C)C)C(=O)N[C@@H](Cc1c[nH]cn1)C(=O)N[C@@H](CC(C)C)C(=O)N[C@@H](CC(C)C)C(=O)N[C@@H](CC(C)C)C(=O)N[C@@H](CCC(=O)O)C(=O)N[C@@H](C)C(=O)N[C@@H](C)C(=O)NCC(=O)N[C@@H](Cc1c[nH]c2ccccc12)C(N)=O [EHE] (H-GLLELLHLLLEAAGW-NH2) | 13 µM | > 25 fold | 2.55 ± 0.07 µM | 18.2 ± 1.06 µM | 0.44 L/P | 0.44 L/P | 384 L/P | 75 L/P | 706 L/P | 952 L/P | significantly increased dye leakage from anionic liposomes | – | –

Reference: paper PMC9069370, “Integrated Design of a Membrane‐Lytic Peptide‐Based Intravenous Nanotherapeutic Suppresses Triple‐Negative Breast Cancer” (Advanced Science, 2022)
